{"source": "paper PMC13294250", "about": "“An effort to enhance the clinical translatability of caprate-based tablet formulations in gastric peptide delivery” (Drug Delivery and Translational Research, 2025)", "key": {"[1]": {"conditions": "cited from earlier work", "text": "Given the negative impact of low gastric pH on both in vitro and in vivo performance of C10-based tablets, the use of a pH modifier was investigated to mitigate the acidity of the human stomach. Since C10 is an ionizable compound known to form different colloidal structures dependant on pH, selection of an appropriate pH modifier is paramount. The resulting pH should enable fast disintegration and dissolution of the formulation, whilst securing that the colloidal species formed facilitate the permeation enhancing effect needed for absorption of the macromolecule. Monomeric C10 is presumed to b ..."}, "[2]": {"assay": "CAC and CMC determinations by dynamic light scattering", "assay_type": "physicochemical", "conditions": "DLS at 25 °C", "experimental": "Stock solutions of sodium caprate were made in the individual buffers. 10–100 mM phosphate buffer was used for most sample series, while 50 mM sodium borate was used for pH 9 [31]. In the case of meglumine a 20 mM Tris buffer pH 8.5 was used. Samples were prepared with and without 20 mg/ml meglumine. All samples were pH adjusted and filtered through 0.22 μm (Millipore 6830-0021). Dynamic light scattering (DLS) data was acquired at 25 °C by adding 20–25 µL of each sample in triplicates to a 384 well plate Corning® 3540 (Corning, NY, USA). The plate was centrifuged for 5 min at 1200 rpm before analysis to remove any air bubbles from the wells. […] A DynaPro™ Plate Reader and Dynamics™ software version 7 (Wyatt Technology Corp., Santa Barbara, CA, USA) was used to collect and analyze the data."}, "[3]": {"conditions": "sodium carbonate as pH modifier candidate in C10 tablets, oral", "procedure": "On top of elevating the pH, the pH-modifying excipient needs to ensure manufacturability of tablets while being compatible with the API in the formulation. An array of alkaline agents capable of increasing the pH were screened (Figure S2) by addition of the pH modifier in 20 mL of acidic media (0.1 M HCl) with 0.1 M KCl, and 10 mg/mL of C10 at 37 °C, which is close to the physiological condition of experimental animals when C10 tablet formulation is dosed. The volume and concentration of HCl and KCl were selected to replicate the gastric in vivo conditions, whereas C10 was added to mimic the intrinsic buffer capacity of the PE present in the tablet."}, "[4]": {"assay": "Screening of the meglumine amount in acidic medium containing C10", "assay_type": "physicochemical", "conditions": "37 °C, pH meter", "experimental": "In addition, it is an approved pharmaceutical excipient marketed in several oral dosage forms such as telmisartan, repaglinide and rosuvastatine tablets. To identify the most suitable meglumine amount for C10-based tablets, a systematic screening was conducted in 20 mL acidic medium (KCl 0.1 M/ HCl 0.025 M, 10 mL + 10 mL of MQ water) reflecting the composition of dog gastric fluid after dosing of water. The medium contained either 50, 100, 200, or 300 mg of C10 to account for different enhancer amounts, and the evolution of pH against added meglumine amount was monitored (Table 1). Since a final pH above 8.5 around the tablet in the stomach is desirable for C10 dissolution and to achieve the single-phased micellar system with high monomeric C10 availability, the corresponding meglumine amount needed to reach pH 8.5 was set as the lower limit for formulation development.\nA stock solution of KCl 0.1 M/ HCl 0.025 M, pH = 1.6 was prepared. 10mL of this solution was added to 10 mL of MQ water in tubes containing either 50, 100, 200, or 300 mg of C10 granules. Each solution was gently stirred at 37 °C. Meglumine was added in amounts beyond the calculated neutralization point. pH was recorded using a pH meter PHM 200 (Mettler Toledo). Turbidity/clarity was visually assessed for records."}, "[5]": {"conditions": "no reference given; cited from earlier work", "text": "Meglumine was selected due to its capability to both raise the pH to the desired level and produce tablets with the required quality. […] In addition, it is an approved pharmaceutical excipient marketed in several oral dosage forms such as telmisartan, repaglinide and rosuvastatine tablets. To identify the most suitable meglumine amount for C10-based tablets, a systematic screening ..."}, "[6]": {"conditions": "50 mg C10 / 20 mL acidic medium (10 mL KCl 0.1 M/HCl 0.025 M pH 1.6 + 10 mL MQ water)"}, "[7]": {"conditions": "200 mg C10 / 20 mL acidic medium (10 mL KCl 0.1 M/HCl 0.025 M pH 1.6 + 10 mL MQ water)"}, "[8]": {"conditions": "300 mg C10 / 20 mL acidic medium (10 mL KCl 0.1 M/HCl 0.025 M pH 1.6 + 10 mL MQ water)"}}, "note": "Like-named read-outs stand apart in the source and are kept apart here."}
{"smiles": "CCCCCCCCCC(=O)[O-].[Na+]", "note": "[Formulation C10, Sodium caprate]", "values": [{"measurement": "critical micelle concentration (CMC)", "setting": "[1]; pH 9.1", "result": 81, "unit": "mM"}, {"measurement": "critical micelle concentration (CMC)", "setting": "[1]; pH 11.8", "result": 102, "unit": "mM"}, {"measurement": "critical aggregate concentration (CAC) of C10 vesicles", "setting": "[2]; pH lower than approximately 8.5, phosphate buffer, triplicates", "result": "around 15 mM"}]}
{"smiles": "O=C([O-])[O-].[Na+].[Na+]", "note": "[Sodium carbonate]", "values": [{"measurement": "adverse events in dogs", "setting": "[3]", "result": "vomiting"}]}
{"smiles": "CNC[C@H](O)[C@@H](O)[C@H](O)[C@H](O)CO", "note": "[meglumine, Meglumine]", "values": [{"measurement": "Amount of meglumine (mg) to pH 8.5", "setting": "[4]; [6]", "result": 15, "unit": "mg"}, {"measurement": "Amount of meglumine (mg) to pH 9.5", "setting": "[4]; [6]", "result": 25, "unit": "mg"}, {"measurement": "Amount of meglumine (mg) to pH 9.5", "setting": "[4]; 100 mg C10 / 20 mL acidic medium (10 mL KCl 0.1 M/HCl 0.025 M pH 1.6 + 10 mL MQ water)", "result": 60, "unit": "mg"}, {"measurement": "Amount of meglumine (mg) to pH 8.5", "setting": "[4]; [7]", "result": 60, "unit": "mg"}, {"measurement": "Amount of meglumine (mg) to pH 9.5", "setting": "[4]; [7]", "result": 100, "unit": "mg"}, {"measurement": "Amount of meglumine (mg) to pH 8.5", "setting": "[4]; [8]", "result": 90, "unit": "mg"}, {"measurement": "Amount of meglumine (mg) to pH 9.5", "setting": "[4]; [8]", "result": 125, "unit": "mg"}, {"measurement": "impact of meglumine on the CMC of C10 (in words)", "setting": "[2]; 20 mM Tris buffer pH 8.5, with and without 20 mg/ml meglumine", "result": "did not show any impact"}, {"measurement": "pKa", "setting": "[5]", "result": 9.6}]}
